The values below come from patent publication US20260273072A1, “NOVEL PLK1 DEGRADATION INDUCING COMPOUND” (UPPTHERA, INC., priority 2023, published 2026).

Common to all, as to format: cell-based
Assay [1] has as its system MRC-5 cell line. Nature of the assay: Cell viability assay for MRC-5 cell line (EZ-Cytox). To be noted: Homo sapiens, MRC5, 120 h; MRC-5 normal cell line, 5 days, 10000 nM to 1.52 nM; read-out: Activity: IC50 value, cell viability, MRC-5 cell line (Exemplary Compounds). The protocol: 4. Cell Viability Assay for MRC-5 Cell Line
(1) Culture of MRC-5 Cell Line
The MRC-5 cell line was purchased from KCLB. Passage of cultured cells was maintained within P15.
(2) Treatment of Compounds of the Present Invention
Then, it was cultured in 37° C. CO2 incubator (Thermo Fisher Scientific) for 5 days.
(3) Cytotoxicity Experiment
CO2 incubator for 4 hours.

The subject of assay [2] is NCI-H526 cell line. Nature of the assay: Cell viability assay for NCI-H526 cell line (EZ-Cytox). As to conditions: Homo sapiens, NCI-H526, 120 h; H526 cells, 5 days, 3000 nM to 0.46 nM. The procedure, abridged:
(§1)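 Human SCLC lines cultured with compound for 5 days in a CO2 incubator; viability read by EZ-Cytox absorbance at 450 nm after 3 min shaking. IC50 reported in activity bins (A: <30 nM up to E: <400 nM).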

Assay [3] concerns NCI-H69 cell line. Nature of the assay: Cell viability assay for NCI-H69 cell line (EZ-Cytox). As to conditions: Homo sapiens, NCI-H69, 120 h; H69 cells, 5 days, 3000 nM to 0.46 nM. The procedure, abridged: as §1
Assay [4] deals with T1, PLK1 (Homo sapiens, UniProt P53350).
T1 construct: endogenous in cells; host or cells: HeLa LgBit (Plk1-HiBit KI): HeLa stably expressing LgBit, with a CRISPR/Cas9 knock-in of HiBit at the endogenous PLK1 locus
As to the kind of experiment: Luciferase assay for PLK1 in HeLa LgBit (Plk1-HiBit KI) cell line. To be noted: 300 nM compound, luminescence after 9 hours. The procedure, abridged: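 HeLa LgBit cells with endogenous PLK1 C-terminally HiBit-tagged by CRISPR knock-in; released from 24 h 2 mM thymidine block, seeded, grown 18 h. Compounds at 300 nM with Endurazine substrate; luminescence (470-480 nm) tracked in real time, expressed as ratio to DMSO.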

Where only a bound is given, the exact number is not on record here.

T1 sequence (P53350 whole entry): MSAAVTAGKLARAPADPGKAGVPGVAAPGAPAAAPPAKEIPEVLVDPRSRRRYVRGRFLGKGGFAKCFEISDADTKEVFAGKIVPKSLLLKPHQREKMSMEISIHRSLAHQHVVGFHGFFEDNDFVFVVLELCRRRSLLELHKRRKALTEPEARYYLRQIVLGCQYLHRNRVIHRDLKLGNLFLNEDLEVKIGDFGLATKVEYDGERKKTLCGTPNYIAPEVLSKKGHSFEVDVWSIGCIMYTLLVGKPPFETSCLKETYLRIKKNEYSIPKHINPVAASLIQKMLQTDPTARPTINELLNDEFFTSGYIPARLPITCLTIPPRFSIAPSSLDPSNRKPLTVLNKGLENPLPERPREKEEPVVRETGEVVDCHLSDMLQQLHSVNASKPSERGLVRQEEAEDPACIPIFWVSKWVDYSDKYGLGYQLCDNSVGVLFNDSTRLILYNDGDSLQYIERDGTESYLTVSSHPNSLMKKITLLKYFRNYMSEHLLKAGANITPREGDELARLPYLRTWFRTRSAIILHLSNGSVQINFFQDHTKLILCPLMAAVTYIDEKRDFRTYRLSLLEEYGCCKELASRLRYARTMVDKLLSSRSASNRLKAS

As for `COc1cc(C(=O)NC2CCN(CCN3CCN(c4ccc(NC5CCC(=O)NC5=O)c(F)c4)CC3)CC2)ccc1Nc1ncc2c(n1)N(C1CCCC1)CC(F)(F)C(=O)N2C` (stereo not drawn) [Compound 32, 4-((9-cyclopentyl-7,7-difluoro-5-methyl-6-oxo-6,7,8,9-tetrahydro-5H-pyrimido[4,5-b][1,4]diazepin-2-yl)amino)-N-(1-(2-(4-(4-((2,6-dioxopiperidin-3-yl)amino)-3-fluorophenyl)piperazin-1-yl)ethyl)piperidin-4-yl)-3-methoxybenzamide], the IC50 (usually the concentration that gives 50% inhibition) in assay [1] is more than 10000 nM; in assay [2] it was less than 30 nM; in assay [3] it was less than 30 nM. The “Activity: ratio of the luminescence value of compound treatment group to DMSO treatment group” value (shortened to “Activity: ratio”) in assay [4] is reported as “++ (++: <0.5)”.

Regarding `COc1cc(C(=O)NN2CCC(CCN3CCN(c4cc(F)c(NC5CCC(=O)NC5=O)cc4F)CC3)CC2)ccc1Nc1ncc2c(n1)N(C1CCCC1)CC(F)(F)C(=O)N2C` (stereo not drawn) [Compound 57, 4-((9-cyclopentyl-7,7-difluoro-5-methyl-6-oxo-6,7,8,9-tetrahydro-5H-pyrimido[4,5-b][1,4]diazepin-2-yl)amino)-N-(4-(2-(4-(4-((2,6-dioxopiperidin-3-yl)amino)-2,5-difluorophenyl)piperazin-1-yl)ethyl)piperidin-1-yl)-3-methoxybenzamide], the values for the IC50 in assay [1], in assay [2] and in assay [3] were more than 10000 nM, less than 30 nM and less than 30 nM, respectively. The “Activity: ratio” value in assay [4] is on record as “+++ (+++: <0.3)”.

As to `COc1cc(N2CCN(CCC3CCN(NC(=O)c4ccc(Nc5ncc6c(n5)N(C5CCCC5)CC(F)(F)C(=O)N6C)c(OC)c4F)CC3)CC2)c(F)cc1NC1CCC(=O)NC1=O` (stereo not drawn) [Compound 44, 4-((9-cyclopentyl-7,7-difluoro-5-methyl-6-oxo-6,7,8,9-tetrahydro-5H-pyrimido[4,5-b][1,4]diazepin-2-yl)amino)-N-(4-(2-(4-(4-((2,6-dioxopiperidin-3-yl)amino)-2-fluoro-5-methoxyphenyl)piperazin-1-yl)ethyl)piperidin-1-yl)-2-fluoro-3-methoxybenz amide], the IC50 was more than 10000 nM in assay [1], less than 50 nM in assay [2] and less than 100 nM in assay [3]. Moreover, the “Activity: ratio” value in assay [4] was “+++ (+++: <0.3)”.

For the compound `COc1cc(C(=O)N[C@H]2[C@@H]3CN(CCC4CCN(c5ccc(NC6CCC(=O)NC6=O)cc5)CC4)C[C@@H]32)ccc1Nc1ncc2c(n1)N(C(C)C)CC(F)(F)C(=O)N2C` (stereo partly drawn) [Compound 24, 4-((7,7-difluoro-9-isopropyl-5-methyl-6-oxo-6,7,8,9-tetrahydro-5H-pyrimido[4,5-b][1,4]diazepin-2-yl)amino)-N-((1R,5S,6s)-3-(2-(1-(4-((2,6-dioxopiperidin-3-yl)amino)phenyl)piperidin-4-yl)ethyl)-3-azabicyclo[3.1.0]hexan-6-yl)-3-methoxybenzamide], the figures for the IC50 in assay [1], in assay [2] and in assay [3] were more than 10000 nM, less than 50 nM and less than 100 nM, respectively. The “Activity: ratio” value in assay [4] is on record as “++ (++: <0.5)”.

Regarding `COc1cc(C(=O)NC2CC3(CCN(CC4CCN(c5ccc(C6CCC(=O)NC6=O)cc5F)CC4)CC3)C2)ccc1Nc1ncc2c(n1)N(C)CC(F)(F)C(=O)N2C` (stereo not drawn) [Compound 5, 4-((7,7-difluoro-5,9-dimethyl-6-oxo-6,7,8,9-tetrahydro-5H-pyrimido[4,5-b][1,4]diazepin-2-yl)amino)-N-(7-((1-(4-(2,6-dioxopiperidin-3-yl)-2-fluorophenyl)piperidin-4-yl)methyl)-7-azaspiro[3.5]nonan-2-yl)-3-methoxybenzamide], the half-maximal inhibitory concentration (IC50) in assay [1] was more than 10000 nM; in assay [2], less than 100 nM; in assay [3] it was less than 100 nM. In assay [4], the “Activity: ratio” value is given as “++ (++: <0.5)”.

Take `CCN1CC(F)(F)C(=O)N(C)c2cnc(Nc3ccc(C(=O)NC4CCC(N(C)CC5CCN(c6cnc(C7CCC(=O)NC7=O)cc6C)CC5)CC4)cc3OC)nc21` (stereo not drawn) [Compound 13, N((1r,4r)-4-(((1-(6-(2,6-dioxopiperidin-3-yl)-4-methylpyridin-3-yl)piperidin-4-yl)methyl)(methyl)amino)cyclohexyl)-4-((9-ethyl-7,7-difluoro-5-methyl-6-oxo-6,7,8,9-tetrahydro-5H-pyrimido[4,5-b][1,4]diazepin-2-yl)amino)-3-methoxybenzamide]: the values for the IC50 in assay [1], in assay [2] and in assay [3] were more than 10000 nM, less than 30 nM and less than 30 nM, respectively. The “Activity: ratio” value in assay [4] is listed as “+++ (+++: <0.3)”.

In the case of `COc1cc(C(=O)N[C@H]2[C@@H]3CN(CCN4CCN(c5ccc(NC6CCC(=O)NC6=O)cc5)CC4)C[C@@H]32)ccc1Nc1ncc2c(n1)N(C(C)C)CC(F)(F)C(=O)N2C` (stereo partly drawn) [Compound 23, 4-((7,7-difluoro-9-isopropyl-5-methyl-6-oxo-6,7,8,9-tetrahydro-5H-pyrimido[4,5-b][1,4]diazepin-2-yl)amino)-N-((1R,5S,6s)-3-(2-(4-(4-((2,6-dioxopiperidin-3-yl)amino)phenyl)piperazin-1-yl)ethyl)-3-azabicyclo[3.1.0]hexan-6-yl)-3-methoxybenzamide], the IC50 was more than 10000 nM in assay [1], less than 30 nM in assay [2] and less than 50 nM in assay [3]. Also, the “Activity: ratio” value in assay [4] is listed as “++ (++: <0.5)”.

In the case of `COc1cc(C(=O)NC2CCN(CCN3CCN(c4cc(OC)c(NC5CCC(=O)NC5=O)cc4F)CC3)CC2)c(F)cc1Nc1ncc2c(n1)N(C1CCCC1)CC(F)(F)C(=O)N2C` (stereo not drawn) [Compound 49, 4-((9-cyclopentyl-7,7-difluoro-5-methyl-6-oxo-6,7,8,9-tetrahydro-5H-pyrimido[4,5-b][1,4]diazepin-2-yl)amino)-N-(1-(2-(4-(4-((2,6-dioxopiperidin-3-yl)amino)-2-fluoro-5-methoxyphenyl)piperazin-1-yl)ethyl)piperidin-4-yl)-2-fluoro-5-methoxybenz amide], the values for the IC50 in assay [1], in assay [2] and in assay [3] were more than 10000 nM, less than 30 nM and less than 50 nM, respectively. Moreover, the “Activity: ratio” value in assay [4] is listed as “++ (++: <0.5)”.

As to `COc1cc(-c2nnc(N3CCC(CCN4CCN(c5cc(F)c(NC6CCC(=O)NC6=O)cc5F)CC4)CC3)o2)ccc1Nc1ncc2c(n1)N(C1CCCC1)CC(F)(F)C(=O)N2C` (stereo not drawn) [Compound 66, 3-((4-(4-(2-(1-(5-(4-((9-cyclopentyl-7,7-difluoro-5-methyl-6-oxo-6,7,8,9-tetrahydro-5H-pyrimido[4,5-b][1,4]diazepin-2-yl)amino)-3-methoxyphenyl)-1,3,4-oxadiazol-2-yl)piperidin-4-yl)ethyl)piperazin-1-yl)-2,5-difluorophenyl)amino)piperidine-2,6-dione], the results for the half-maximal inhibitory concentration (IC50) in assay [1], in assay [2] and in assay [3] were more than 10000 nM, less than 200 nM and less than 200 nM, respectively. Moreover, the “Activity: ratio” value in assay [4] is given as “++ (++: <0.5)”.

As to `COc1cc(C(=O)NN2CCC(CCN3CCN(c4ccc(NC5CCC(=O)NC5=O)c(F)c4OC)CC3)CC2)ccc1Nc1ncc2c(n1)N(C1CCCC1)CC(F)(F)C(=O)N2C` (stereo not drawn) [Compound 55, 4-((9-cyclopentyl-7,7-difluoro-5-methyl-6-oxo-6,7,8,9-tetrahydro-5H-pyrimido[4,5-b][1,4]diazepin-2-yl)amino)-N-(4-(2-(4-(4-((2,6-dioxopiperidin-3-yl)amino)-3-fluoro-2-methoxyphenyl)piperazin-1-yl)ethyl)piperidin-1-yl)-3-methoxybenzamide], the IC50 in assay [1] is more than 10000 nM; in assay [2] it was less than 30 nM; in assay [3] it was less than 30 nM. In addition, the “Activity: ratio” value in assay [4] is on record as “+++ (+++: <0.3)”.

`COc1cc(C(=O)NC2CCN(C3CN(c4ccc(C5CCC(=O)NC5=O)cc4F)C3)CC2)ccc1Nc1ncc2c(n1)N(C(C)C)CC(F)(F)C(=O)N2C` (stereo not drawn) [Compound 3, 4-((7,7-difluoro-9-isopropyl-5-methyl-6-oxo-6,7,8,9-tetrahydro-5H-pyrimido[4,5-b][1,4]diazepin-2-yl)amino)-N-(1-(1-(4-(2,6-dioxopiperidin-3-yl)-2-fluorophenyl)azetidin-3-yl)piperidin-4-yl)-3-methoxybenzamide]: the IC50 in assay [1] is more than 10000 nM; in assay [2], less than 50 nM; in assay [3], less than 100 nM. The “Activity: ratio” value in assay [4] is recorded as “++ (++: <0.5)”.

Consider `COc1cc(C(=O)NN2CCC(CCN3CCN(c4ccc(NC5CCC(=O)NC5=O)c(F)c4)CC3)CC2)ccc1Nc1ncc2c(n1)N(C1CCCC1)CC(F)(F)C(=O)N2C` (stereo not drawn) [Compound 34, 4-((9-cyclopentyl-7,7-difluoro-5-methyl-6-oxo-6,7,8,9-tetrahydro-5H-pyrimido[4,5-b][1,4]diazepin-2-yl)amino)-N-(4-(2-(4-(4-((2,6-dioxopiperidin-3-yl)amino)-3-fluorophenyl)piperazin-1-yl)ethyl)piperidin-1-yl)-3-methoxybenzamide], for which the IC50 in assay [1] was more than 10000 nM; in assay [2] it was less than 30 nM; in assay [3], less than 30 nM. Also, the “Activity: ratio” value in assay [4] was “++ (++: <0.5)”.
